Measured values as given in patent US11072588B2, “Barbituric acid derivatives comprising cationic and lipophilic groups” (UNIVERSITETET I TROMSØ—NORGES ARKTISKE UNIVERSITET, priority 2017, dated 2021).
≈ marks a conversion by molar mass, not a printed value.

Columns and labels:
Assay type in all cases: cell-based
[1] = test system: human metastatic melanoma (A2058, ATCC CRL-11147) cells; assay: Anti-cancer activity against A2058 cells; conditions: A2058, read-out: Anti-cancer IC50
Procedure: Cytotoxicity of the test compounds was evaluated after 72 hour exposure to human metastatic melanoma (A2058, ATCC CRL-11147) cells.
A2058 cells were grown overnight (2,000 cells/well), and then incubated with the test compounds (range of concentrations) diluted in MEM Earle's supplemented with gentamycin (10 μg/mL), non-essential amino acids (1%), sodium pyruvate (1 mM), L-alanyl-Lglutamine (2 mM), but without FBS (total volume was 100 μl) for […]. Ten μL of CellTiter 96® AQueous One Solution Reagent (Promega, Madison, Wis., USA) was added, and the plates were then further incubated for 1 hour.
Absorbance was measured at 485 nm in a DTX 880 Multimode Detector. Results were calculated as % survival compared to negative (assay media) and positive (Triton X-100; Sigma-Aldrich) controls.

[2] = test system: Corynebacterium glutamicum ATCC 13032; assay: MIC assay, antibiotic susceptible reference strain; conditions: ATCC13032; Corynebacterium glutamicum ATCC 13032; read-out: Antimicrobial activity (MIC) C. g
Procedure: (§1) Working solutions of the test derivatives were prepared with up to 100% DMSO and stored at −20° C. If necessary, the solutions were heated to 40-80° C. before testing to facilitate complete dissolution. Double-distilled water was used in all dilutions prepared. […] A microdilution susceptibility test was used for MIC determination according to Clinical and Laboratory Standards Institute, “Methods for Dilution Antimicrobial Sisceptibility Tests for Bacteria That Graw Aerobically”, Approved Standard M07-A9, edition 2012, with modifications as described by Igumnova et al (Bioorg Med Chem, 2016, 24 (22), 5884-5894).
(§2) Briefly, the bacterial inoculum was adjusted to approximately 2.5-3×10^4 cells/mL in Mueller-Hinton broth (MHB, Difco Laboratories, USA), and incubated in a ratio of 1:1 with test derivatives in polystyrene 96-well flat-bottom microplates (NUNC, Roskilde, Denmark). Positive growth control (without test derivatives) and negative control (without bacteria) were included. The reference antibiotic was oxytetracycline hydrochloride (Sigma Aldrich, Saint Louis, Mo., USA). The microplates were incubated in an EnVision microplate reader (Perkin-Elmer, Turku, Finland) placed in an incubator set to 35° C. for 48 h. The MIC value was defined as the lowest concentration of derivative resulting in no bacterial growth as determined by OD600 measurement. All derivatives were tested in three parallels.

[3] = test system: Escherichia coli ATCC 25922; assay: MIC assay, antibiotic susceptible reference strain; conditions: ATCC25922; Escherichia coli ATCC 25922; read-out: Antimicrobial activity (MIC) E. c
Procedure: as §1, §2

[4] = test system: Staphylococcus aureus ATCC 9144; assay: MIC assay, antibiotic susceptible reference strain; conditions: ATCC9144; Staphylococcus aureus ATCC 9144; read-out: Antimicrobial activity (MIC) S. a
Procedure: as §1, §2

[5] = test system: Pseudomonas aeruginosa PA01, DSM 19880 (ATCC 15692); assay: MIC assay, antibiotic susceptible reference strain; conditions: Pseudomonas aeruginosa PA01, DSM 19880 (ATCC 15692); read-out: Antimicrobial activity (MIC) P. a
Procedure: as §1, §2

NCCCCN1C(=O)N(CCCCN)C(=O)C(CCCc2ccccc2)(CCCc2ccccc2)C1=O [Compound 9]
IC50 [1]: 2.9 mg/L (≈ 5.72 µM)

CN(C)[C@@H]1C(O)=C(C(N)=O)C(=O)[C@@]2(O)C(O)=C3C(=O)c4c(O)cccc4[C@@](C)(O)[C@H]3[C@H](O)[C@@H]12 [Oxytetracycline, reference compound]
MIC [2]: 0.65 mg/L (≈ 1.41 µM) | MIC [3]: 2.5 mg/L (≈ 5.43 µM) | MIC [4]: 0.65 mg/L (≈ 1.41 µM) | MIC [5]: 20 mg/L (≈ 43.4 µM)
